In article PMC7942396, “Drug Repurposing Screen for Compounds Inhibiting the Cytopathic Effect of SARS-CoV-2” (Frontiers in Pharmacology, 2021):
Structures can show the parent of a compound that is named as a salt. Where two headings read alike, the source gives them in different places. Where a SMILES comes first, the peptide text is derived from it. The star is where a group is joined. Cbz = O=C(OCc1ccccc1)*; CH2Cl = ClC*

Legend:
[1] = tested on: SARS-CoV-2 (USA_WA1/2020); assay: microbe, parasite or virus in culture; assay type: cell-based; details: for EC50: read-out: CPE EC50
Vero E6 cells = Vero E6 cells without virus; for CC50: read-out: Cytotox CC50
[2] = SARS-CoV-2 CPE assay, Vero E6 cells, confirmed anti-SARS-CoV-2 compounds
[3] = SARS-CoV-2 CPE assay, Vero E6 cells, efficacy
[4] = […], DMSO 0%, no-virus control 100%, hit confirmation
[5] = SARS-CoV-2 CPE assay, Vero E6 cells

| Compound | EC50 [1, 2] | CPE % Efficacy [1, 3] | % Cytotox (Vero E6 cells; cytotoxicity counter-assay) | CC50 (Vero E6 cells; cytotoxicity counter-assay) | CPE % Efficacy [1, 4] | EC50 [1] | % Cytotox (Vero E6 cells; 72 h) | CPE % Efficacy [1, 5] | EC50 [1, 5] |
| --- | --- | --- | --- | --- | --- | --- | --- | --- | --- |
| CC(C)(C)Cn1c(N)nc2ccc(-c3[nH]c(C(C)(C)C)nc3-c3ccc(F)cc3)nc21 [LY-2228820 (ralimetinib)] | 1.58 µM | 85.9% | 78.9% | 12.6 µM |  |  |  |  |  |
| COc1cc2nc(N3CCC(N4CCCCC4)CC3)nc(NC3CCCCCC3)c2cc1OC.Cl.Cl [C 021 dihydrochloride] | 3.55 µM | 79.7% | 108.9% | 7.08 µM |  |  |  |  |  |
| Cc1cc(CN)cc(C)c1NC(=O)c1ccc(-c2cc(Cl)ccc2Cl)o1 [CYM50358] | 4.47 µM | 34.9% | 52.7% |  |  |  |  |  |  |
| CC(C)C[C@H](NC(=O)CNC(=O)OCc1ccccc1)C(=O)N[C@@H](Cc1ccccc1)C(=O)CCl [Z-Gly-Leu-Phe-chloromethyl ketone, reference compound] (Cbz-Gly-Leu-Phe-CH2Cl) |  |  |  |  | 87.2% | 1.3 µM | <30% |  |  |
| COc1cccc([C@@H](C)NCCCc2ccccc2Cl)c1 [NPS-R568] | 11.2 µM | 78.0% | 15.8% | 12.6 µM |  |  |  |  |  |
| COC(=O)CC[C@@H](C)[C@H]1CC[C@H]2[C@@H]3CC[C@@H]4C[C@H](OC(C)=O)CC[C@]4(C)[C@H]3C[C@H](O)[C@]12C (racemic) |  |  | 0.0% |  |  |  |  | 62.5% | 12.6 µM |
| CCN(CC)CCCCNc1nc2cc(Cl)c(Cl)cc2nc1-c1ccc(-c2cccs2)s1 [PD-0220245] | 3.55 µM | 35.5% | 107.5% | 11.2 µM |  |  |  |  |  |
| CC(C)c1ccc(NC(=O)C(c2ccccc2)N(C)C(=O)Cc2c[nH]c3ccccc23)cc1 (centres unmarked) [PG-01] | 3.55 µM | 98.0% | 110.5% |  |  |  |  |  |  |
| Cc1ccc(-c2c(C(=O)CCl)n(CCCO)c3ncnc(N)c23)cc1 [CMK] |  |  | 15.2% |  |  |  |  | 38.9% | 12.6 µM |
| COc1cccc(CCc2ccccc2OCC(CN(C)C)OC(=O)CCC(=O)O)c1.Cl (centres unmarked) [Sarpogrelate hydrochloride] | 11.2 µM | 30.1% | 21.2% | 15.8 µM |  |  |  |  |  |
| CC(C)C[C@H]1C(=O)O[C@H](Cc2ccc(N3CCOCC3)cc2)C(=O)N(C)[C@@H](CC(C)C)C(=O)O[C@H](C)C(=O)N(C)[C@@H](CC(C)C)C(=O)O[C@H](Cc2ccc(N3CCOCC3)cc2)C(=O)N(C)[C@@H](CC(C)C)C(=O)O[C@H](C)C(=O)N1C [Emodepside] | 6.31 µM | 74.5% | 32.2% | 8.91 µM |  |  |  |  |  |
| COc1cc(C(=O)NC(=N)Nc2ccc(C)c(NC(=O)c3ccc(-c4ccccc4)cc3)c2)cc(OC)c1OC [MRT-83] |  |  | 37.9% | 10 µM |  |  |  | 56.4% | 11.2 µM |
| CC(NC(=O)[C@H](Cc1ccccc1)NC(=O)OCc1ccccc1)C(=O)CF (some centres unmarked) [Z-FA-FMK, reference compound] |  |  |  |  | 104.8% | 0.13 µM | <30% |  |  |
| O=C(CCn1cnc2onc(-c3ccc(F)cc3)c2c1=O)Nc1cccc(C(F)(F)F)c1 [NCGC00126519] | 11.2 µM | 64.8% | 65.0% | 10 µM |  |  |  |  |  |
| COc1ccc(NC(=O)c2ccc(-c3ccc(-c4nnc(C)o4)cc3C)cc2)cc1N1CCN(C)CC1 [GMC 2-29, reference compound] |  |  |  |  | 117.2% | 7.9 µM | <30% |  |  |
| COc1cc2c3cc1Oc1c(OC)c(OC)cc4c1[C@@H](Cc1ccc(O)c(c1)Oc1ccc(cc1)C[C@@H]3N(C)CC2)N(C)CC4 [Berbamine dihydrochloride] | 2.82 µM | 79.0% | 50.1% | 11.2 µM |  |  |  |  |  |
| Cc1cccc(Nc2nc(N[C@@H]3CCCC[C@@H]3N)ncc2C(N)=O)c1 [PRT-060318] | 11.2 µM | 56.9% | 45.2% | 12.6 µM |  |  |  |  |  |
| CC[C@H](NC(=O)[C@H](CS(=O)(=O)CC1CC1)N[C@@H](c1ccc(F)cc1)C(F)(F)F)C(=O)C(=O)NC1CC1 [VBY-825, reference compound] |  |  |  |  | 97.8% | 0.14 µM | <30% |  |  |
| CCCCOC(=O)c1ccnc2cc(C(OCCN3CCCCC3)c3ccccc3C)sc12 (centres unmarked) [NCGC00481621] | 10 µM | 88.9% | 35.5% | 12.6 µM |  |  |  |  |  |
| GSK 9027 |  |  | 24.3% |  |  |  |  | 104.1% | 12.6 µM |
| CCCOC(C(=O)OC1CCN(C)CC1)(c1ccccc1)c1ccccc1.Cl [Propiverine hydrochloride] | 11.2 µM | 44.6% | 0.0% |  |  |  |  |  |  |
